The source of these data is ChEMBL document CHEMBL1143917, “Improved synthesis of histone deacetylase inhibitors (HDIs) (MS-275 and CI-994) and inhibitory effects of HDIs alone or in combination with RAMBAs or retinoids on growth of human LNCaP prostate cancer cells and tumor xenografts” (Bioorg Med Chem, 2008).

pIC50: −log10 of the molar value.

In assay [1] the test system is LNCaP. As to the kind of experiment: Cell cycle arrest in human LNCap cells assessed as accumulation at G2/M phase relative to control at 5 uM. Type of assay: functional.
Assay [2] has as its system LNCaP. As to the kind of experiment: Cell cycle arrest in human LNCap cells assessed as accumulation at S phase relative to control at 5 uM. It is filed as functional.
In assay [3] the test system is LNCaP. In words: Antitumor activity against human LNCap cells xenografted SCID mouse model at 10 to 20 mg/kg/day, sc relative to control. It is filed as functional. To be noted: route subcutaneous. (In general: A xenograft is tissue or cells of one species grown in another, often human tumour cells in immunodeficient mice.)
Assay [4] concerns LNCaP. As to the kind of experiment: Cell cycle arrest in human LNCap cells assessed as accumulation at G1 phase relative to control at 5 uM. Type of assay: functional.
The test system of assay [5] is LNCaP. As to the kind of experiment: Antiproliferative activity against human LNCap by MTT assay. Type of assay: functional, cell-based.
Assay [6] deals with LNCaP. As to the kind of experiment: Cell cycle arrest in human LNCap cells assessed as accumulation at S phase relative to control at 1 uM. It is filed as functional.
The test system of assay [7] is LNCaP. In words: Cell cycle arrest in human LNCap cells assessed as accumulation at G2/M phase relative to control at 1 uM. Type of assay: functional.
Assay [8] has as its system LNCaP. As to the kind of experiment: Cell cycle arrest in human LNCap cells assessed as accumulation at G1 phase relative to control at 1 uM. Type of assay: functional.
In assay [9] the test system is LNCaP. As to the kind of experiment: Antitumor activity against human LNCap cells xenografted SCID mouse model at 20 to 10 mg/kg/day, sc relative to control. It is filed as functional. The following applies: route subcutaneous.

For the molecule `CC1=C(/C=C/C(C)=C/C=C/C(C)=C/C(=O)Nc2ccc(O)cc2)C(C)(C)CCC1n1ccnc1` (stereo not given), the Activity is 0% in the assay with LNCaP [1], 10.86% in the assay with LNCaP [2], 81.6% in the assay with LNCaP [3] and 89.14% in the assay with LNCaP [4].

As a reminder, the pIC50 is the negative decadic logarithm of the IC50, by convention in mol/L. A high value points to a low IC50. For the molecule `Nc1ccccc1NC(=O)c1ccc(CNC(=O)OCc2cccnc2)cc1` [ENTINOSTAT], the pIC50 in the assay on LNCaP [5] is 6.44.

The molecule `CC(=O)Nc1ccc(C(=O)Nc2ccccc2N)cc1` [TACEDINALINE] showed a pIC50 with LNCaP [5] of 5.13.

For the molecule `O=C(CCCCCCC(=O)Nc1ccccc1)NO` [VORINOSTAT], the Activity in the assay on LNCaP [6] is 18.1%; with LNCaP [7], 0%; in the assay with LNCaP [8] it was 81.9%; with LNCaP [9] it was 97.1%.
